Measurements taken from US20260191764A1, “COMBINATION OF A LACTOBACILLUS STRAIN AND A GRAPE EXTRACT FOR USE AS AN ANTI-AGEING AGENT” (CEPAGES, priority 2022, published 2026).

Columns and labels:
[1] = test system: NHEK keratinocytes; test: ROS production in NHEK keratinocytes subjected to UVA (H2DCFDA probe); type: cell-based, Human; settings: UVA 5 J/cm^2, extract at 0.29%, active at 0.3%, ascorbic acid at 300 μg/mL, 24 h pre-treatment, FIG. 2
Protocol: The Normal Human foreskin-derived Epidermal Keratinocytes isolated from 3 Caucasian donors (NHEKs, Lonza, 00192906) were grown in Epilife medium (Fisher Scientific, M-EPI-500-A) supplemented with Human Keratinocyte Growth Supplement (HKGS, Fisher Scientific, S-001-5). The cells were maintained in a humidified incubator at 37° C. with a 5% CO2 atmosphere. The detection and quantification of the intracellular ROS amounts from 2D NHEK keratinocytes or 3D RHE were performed using the H2DCFDA (2′-7′dichlorodihydrofluorescein diacetate; Fisher Scientific; D399) probe. After its diffusion into the live cells, the probe is deacetylated by intracellular esterases to a non-fluorescent compound. This compound can be oxidized by ROS and converted into the highly fluorescent DCF (2′-7′ dichlorofluorescein). The production of ROS by cells can be therefore measured through the level of fluorescence emitted by the oxidized dye. NHEK keratinocytes in 24-well plates were pre-treated in the culture medium during 24 h by the compounds at 1 concentration or with the antioxidant reference, ascorbic acid at 300 μg/mL. […] Following the challenge, the fluorescence was measured (excitation: 475 nm; emission: 500-550 nm) with a fluorescence microplate reader (Glomax Explorer, Promega). […]

[2] = test system: pro-MMP1; test: Pro-MMP1 release from NHDFs fibroblasts (ELISA); type: cell-based, Human; settings: NHDFs treated 72 h; B 0.0079%, E 0.029%, A 0.03%; TGF-β1 20 ng/ml; TNFα 20 ng/mL + IL1β 2.5 ng/ml; vs untreated control; FIG. 3
Protocol: The Normal Human foreskin-derived Dermal Fibroblasts (NHDFs; ATCC, CRL-2522) cells were grown in Dulbecco's Modified Eagle Medium (DMEM, Gibco/Life Technologies, 31885) supplemented with 10% of Foetal Bovine Serum (FBS, Gibco/Life Technologies, 10270). The cells were maintained in a humidified incubator at 37° C. with a 5% CO2 atmosphere.
NHDF fibroblasts were cultivated on 24-well plates in complete culture medium (containing 10% FBS) 24 h before the treatment with the compounds. Cells were then treated for 72 h with the test compounds in culture medium, in absence of FBS. In parallel, reference treatments were applied according to the same method (TGF-β at 20 ng/ml; combination of TNFα at 20 ng/ml and IL1β at 2.5 ng/ml). All the treatments were performed in triplicate of culture (n=3).
At the end of the 72 h of treatments, all the supernatants were collected, aliquoted and stored at −20° C. until further use in specific ELISA assays. Through these assays, the quantifications of the extracellular releases of pro-MMP1 (R&D systems, DMP100) produced by NHDFs fibroblasts were assessed according to the supplier's specifications.

Row | Molecule | ROS production [1] | pro-MMP1 release in supernatant [2]
1 | O=C1O[C@H]([C@@H](O)CO)C(O)=C1O [ascorbic acid] | partially suppressed this effect | –
2 | TGF-β1: negative reference at 20 ng/ml in the pro-MMP1 assay | – | reduced
